Laboratory results from paper PMC3222274 (Molecular and biochemical parasitology, 2011).
pIC50: −log10 of the molar value.

Key:
[1] = molecular target: Dv-ACE-1 (Dictyocaulus viviparus, UniProt Q0H0R6); test: Ellman assay, transfected COS-7 extract, logistic fit; assay type: biochemical
[2] = system: CC(=O)SCC[N+](C)(C)C; test: Ellman assay, transfected COS-7 extract, fit with Km, Kss and b; assay type: biochemical, Dictyocaulus viviparus; conditions: pH 7, 0.3 mM DTNB, 167 mM NaCl, substrate-inhibition model
[3] = system: CCC(=O)SCC[N+](C)(C)C; test: as above; assay type: biochemical, Dictyocaulus viviparus; conditions: pH 7, 0.3 mM DTNB, 167 mM NaCl, substrate-inhibition model
[4] = system: CCCC(=O)SCC[N+](C)(C)C; test: as above; assay type: biochemical, Dictyocaulus viviparus; conditions: pH 7, 0.3 mM DTNB, 167 mM NaCl, substrate-activation model

Row | Compound | pIC50 [1] | Km [2] | Km [3] | Km [4]
1 | C=CC[N+](C)(C)c1ccc(CCC(=O)CCc2ccc([N+](C)(C)CC=C)cc2)cc1 [BW284c51] | 6.52 | – | – | –
2 | CCN(CC)C(C)CN1c2ccccc2Sc2ccccc21 (stereo not shown) [ethopropazine] | 3.86 | – | – | –
3 | CC(C)NP(=O)(NC(C)C)OP(=O)(NC(C)C)NC(C)C [iso-OMPA] | < 2.52 | – | – | –
4 | CNC(=O)Oc1ccc2c(c1)[C@]1(C)CCN(C)[C@@H]1N2C [physostigmine] | 6.90 | – | – | –
5 | Dv-ACE-1 (Dictyocaulus viviparus) | – | 7.51 ± 0.21 × 10^−4 M | 1.59 ± 0.03 × 10^−3 M | 4.32 ± 1.61 × 10^−5 M
